By inhibition is commonly meant the share of the control response that was lost under treatment.

For the experiment, the target named is T1, RET(S891A) (Homo sapiens, UniProt P07949, S891A).
T1 construct: purchased Carna Biosciences, Inc
Description: Off-chip Mobility Shift Assay, kinase inhibition. The class given is biochemical. The following applies: at 10 nM; recombinant RET(S891A).

T1 sequence (P07949 29-1114 S891A): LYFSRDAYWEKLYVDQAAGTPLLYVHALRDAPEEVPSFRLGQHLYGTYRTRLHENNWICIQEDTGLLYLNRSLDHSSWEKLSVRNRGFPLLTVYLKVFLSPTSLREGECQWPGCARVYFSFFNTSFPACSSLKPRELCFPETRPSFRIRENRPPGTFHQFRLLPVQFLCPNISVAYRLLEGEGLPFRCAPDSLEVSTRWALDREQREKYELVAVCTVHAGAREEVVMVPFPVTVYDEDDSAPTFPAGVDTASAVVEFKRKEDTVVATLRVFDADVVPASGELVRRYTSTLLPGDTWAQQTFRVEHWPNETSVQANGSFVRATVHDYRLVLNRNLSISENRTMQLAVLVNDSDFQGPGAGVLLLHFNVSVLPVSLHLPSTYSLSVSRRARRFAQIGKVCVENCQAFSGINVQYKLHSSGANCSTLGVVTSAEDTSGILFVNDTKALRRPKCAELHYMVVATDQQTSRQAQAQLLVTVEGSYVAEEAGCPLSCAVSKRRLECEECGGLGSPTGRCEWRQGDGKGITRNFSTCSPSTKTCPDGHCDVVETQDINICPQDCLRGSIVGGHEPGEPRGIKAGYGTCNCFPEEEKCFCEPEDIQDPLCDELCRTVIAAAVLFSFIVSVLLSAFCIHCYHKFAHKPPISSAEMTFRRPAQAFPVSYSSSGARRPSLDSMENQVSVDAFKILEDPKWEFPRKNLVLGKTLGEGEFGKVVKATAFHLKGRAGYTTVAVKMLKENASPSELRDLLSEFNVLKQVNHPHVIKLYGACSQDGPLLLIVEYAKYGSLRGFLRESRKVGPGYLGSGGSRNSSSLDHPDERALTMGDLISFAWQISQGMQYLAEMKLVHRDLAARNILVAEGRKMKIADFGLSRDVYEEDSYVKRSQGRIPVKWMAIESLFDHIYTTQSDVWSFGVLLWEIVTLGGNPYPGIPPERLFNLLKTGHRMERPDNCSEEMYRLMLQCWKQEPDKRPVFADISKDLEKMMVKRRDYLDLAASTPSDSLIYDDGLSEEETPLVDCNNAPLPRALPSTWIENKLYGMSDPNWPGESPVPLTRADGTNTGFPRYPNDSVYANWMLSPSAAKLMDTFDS

With `[2H]c1cc(C)c(NC(=O)c2cnc(Nc3cc(N4CCCCC4)nc(C)n3)s2)c(Cl)c1` [Compound I, N-(2-chloro-4-deuterio-6-methyl-phenyl)-2-[[2-methyl-6-(1-piperidyl)pyrimidin-4-yl]amino]thiazole-5-carboxamide], the inhibition at 0.01 µM is < 50%.

(Values after patent US10479786B2, “Protein kinase inhibitors” (Princeton Drug Discovery Inc, priority 2016, dated 2019).)
